In data set [1] the test system is cisplatin-resistant A2780cisR cells. As to the kind of experiment: MTT cytotoxicity assay, A2780cisR cells. (Tetrazolium assays rely on reduction of a dye to a coloured formazan, in cell work by metabolically active cells.)
Description: (§1) Human ovarian carcinoma A2780 and cisplatin-resistant A2780cisR cells were cultured in RPMI 1640 with 10% FBS and 100 units penicillin/streptomycin. Human breast adenocarcinoma MCF-7, human colorectal carcinoma HCT116, human lung carcinoma A549, and cisplatin-resistant A549cisR cells were cultured in DMEM containing 10% FBS and 100 units penicillin/streptomycin. Human fetal lung fibroblast MRC-5 cells were cultured in MEM with 10% FBS, 1% L-glutamine, 1% non-essential amino acids, and 1% sodium pyruvate. […] All cells were incubated at 37° C. in 5% CO2.
(§2) For each of these assays, cells were seeded in 96-well plates at a certain density. For instance, A2780 cells were seeded in a 96-well plate at the density of 1,500 cells per well and incubated till the confluence reached about 30%. Cells were then treated with medium containing varying concentrations of compounds for 72 h at 37° C. in 5% CO2. […] For MTT assay, after incubation for 72 h, the medium containing compounds was replaced by FBS-free medium with 1 mg/mL MTT for 4 h incubation. DMSO was added to each well when the medium containing MTT was removed after incubation. The absorbance was measured at 570 and 630 nm. Cells incubated with medium containing 1% DMF only were used as controls. The seeded cell density for A549, MCF-7 and HCT116 was 1,500 cells/well, and for A2780cisR, A549cisR, and MRC-5 was 2,500 cells were seeded to each well. The absorbance was tested at 570 and 630 nm.
(§3) Values are the average of the 96-wells for each tested compound, and the reported errors are the corresponding standard deviations.
Data set [2] relates to cisplatin-resistant A549cisR cells. As to the kind of experiment: MTT cytotoxicity assay, A549cisR cells.
Description: as §1, §2, §3
The nature of data set [3]: MTT cytotoxicity assay, MRC-5 normal cells. The note with it: human, MRC-5 fetal lung fibroblast cells (normal cells).
Description: as §1, §2, §3
In data set [4] the test system is human colorectal carcinoma HCT116 cells. As to the kind of experiment: MTT cytotoxicity assay, HCT116 cells. The settings on record: maximum over the cells tested (HCT116). It is filed as cell-based. On the procedure: The absorbance was measured at 570 and 630 nm. […].
Data set [5] concerns human lung carcinoma A549 cells.
Description: as §1
(§4) For each of these assays, cells were seeded in 96-well plates at a certain density. For instance, A2780 cells were seeded in a 96-well plate at the density of 1,500 cells per well and incubated till the confluence reached about 30%. Cells were then treated with medium containing varying concentrations of compounds for 72 h at 37° C. in 5% CO2. […] For MTT assay, after incubation for 72 h, the medium containing compounds was replaced by FBS-free medium with 1 mg/mL MTT for 4 h incubation. DMSO was added to each well when the medium containing MTT was removed after incubation. The absorbance was measured at 570 and 630 nm. Cells incubated with medium containing 1% DMF only were used as controls. […] The absorbance was tested at 570 and 630 nm. […]
For data set [6], the system named is cisplatin-resistant A549cisR cells.
Description: as §1, §2, §3
The test system of data set [7] is cisplatin-resistant A2780cisR cells.
Description: as §1, §2, §3
The test system of data set [8] is Human ovarian carcinoma A2780 cells.
Description: as §1, §4
In data set [9] the test system is Human fetal lung fibroblast MRC-5 cells.
Description: as §1, §2, §3
Data set [10] concerns Human breast adenocarcinoma MCF-7 cells.
Description: Human breast adenocarcinoma MCF-7, human colorectal carcinoma HCT116, human lung carcinoma A549, and cisplatin-resistant A549cisR cells were cultured in DMEM containing 10% FBS and 100 units penicillin/streptomycin. […] All cells were incubated at 37° C. in 5% CO2.
as §2, §3

The text below walks through data of patent US11220522B2, “Cytotoxic platinum complex, its preparation and therapeutic use” (City University of Hong Kong, priority 2016, dated 2022).

Where only a bound is given, the exact number is not on record here.

For the compound `N.N.[Cl][Pt][Cl]` [cDDP, cis-diamminedichloroplatinum], the “RF (Resistant Factor)” value in data set [1] (IC50 in A2780CisR/IC50 in A2780 cells) turned out to be 16; in data set [2] (IC50 in A549cisR/IC50 in A549 cells) it was 4.3.

In [3], `[NH2][Pt]([NH2])([Cl])([Cl])([O]C(=O)COc1ccc(/C=C/C(=O)c2ccc(Cl)c(Cl)c2)cc1)[O]C(=O)COc1ccc(/C=C/C(=O)c2ccc(Cl)c(Cl)c2)cc1` [chalcoplatin] registered an IC50 at 72 h of 9 ± 0.4 µM.

In the case of `[NH2][Pt]([NH2])([OH])([Cl])([Cl])[O]C(=O)COc1ccc(/C=C/C(=O)c2ccc(Cl)c(Cl)c2)cc1` [monochalcoPt(IV)], the IC50 at 72 h in [3] was found to be 0.11 ± 0.03 µM. Moreover, the “IC50 (cytotoxicity, MTT assay)” value is “nanomolar” in data set [1] (A2780cisR cells, 72 h drug treatment) and “nanomolar” in [2] (A549cisR cells, 72 h drug treatment). In addition, in [4], the “fold increase in cytotoxicity compared with cisplatin” value is listed as not above 422 fold.

Turning to Chalcone, the IC50 is more than 40 µM in data set [5]; more than 40 µM in data set [6]; more than 35 µM in [7]; more than 35 µM in [8]; 65.1 ± 9 µM in data set [9]; more than 50 µM in data set [10].

Usually IC50 stands for the concentration that inhibits the measured activity by half. Lower therefore signals inhibition by little substance.
